Each structure is given as a SMILES string.

Here are results for five compounds from paper PMC7203344, “Sirtuin 1 Inhibiting Thiocyanates (S1th)—A New Class of Isotype Selective Inhibitors of NAD^+ Dependent Lysine Deacetylases” (Frontiers in Oncology, 2020).

One data set concerns the target HDAC1 (Homo sapiens, UniProt Q13547). Kind of data set: Homogeneous ZMAL-based fluorescence assay for HDAC1. Format: biochemical. As to the method: The inhibition of HDAC1 and 6 by the S1th and PR-619 was determined via the ZMAL-assay according to the same general procedure described for sirtuins (2.2.1). 5 μL substrate (10.5 μM final assay concentration) were mixed with 3 μL of inhibitor in DMSO or DMSO and 10 μL of HDAC solution (concentration adjusted to 15–30% conversion) and filled up to 60 μL with assay buffer (50 mM Tris, 137 mM NaCl, 1 mM MgCl2, 2,7 mM KCl, 1 mg/ml BSA, pH = 8.0). The mixture was incubated at 37°C and 140 rpm for 1.5 h. For the stop solution Trichostatin A (3.3 μM) was used instead of nicotinamide. Fluorescence intensity was measured as described above. An enzyme free blank control and an AMC containing 100% control were performed as well and inhibition was calculated in % in relation to a DMSO control.

The test system of data set [1] is MCF7 cells. Briefly: Cell proliferation assay with MCF7 cells. The class given is cell-based, human. Conditions: concentrations as for HeLa. The protocol:
1.5 × 10^4 cells/well were seeded in 24-well plates and grown in DMEM 10% in presence of DMSO, 20 μM EX-527, 12 μM S1th 13, 20 μM S1th 12, or 30 μM S1th 10. The growth media containing the drugs was replaced every 48 h. Cells were collected and counted at the indicated times starting 24 h after seeding (0, 24, 48, 72, 96, and 120 h). The experiment was performed twice in duplicates.

A further data set addresses T1, Sirt1 (Homo sapiens, UniProt Q96EB6).
T1 construct: made in house; host or cells: E. coli BL21 Star (DE3)
T1 sequence (Q96EB6 134-747): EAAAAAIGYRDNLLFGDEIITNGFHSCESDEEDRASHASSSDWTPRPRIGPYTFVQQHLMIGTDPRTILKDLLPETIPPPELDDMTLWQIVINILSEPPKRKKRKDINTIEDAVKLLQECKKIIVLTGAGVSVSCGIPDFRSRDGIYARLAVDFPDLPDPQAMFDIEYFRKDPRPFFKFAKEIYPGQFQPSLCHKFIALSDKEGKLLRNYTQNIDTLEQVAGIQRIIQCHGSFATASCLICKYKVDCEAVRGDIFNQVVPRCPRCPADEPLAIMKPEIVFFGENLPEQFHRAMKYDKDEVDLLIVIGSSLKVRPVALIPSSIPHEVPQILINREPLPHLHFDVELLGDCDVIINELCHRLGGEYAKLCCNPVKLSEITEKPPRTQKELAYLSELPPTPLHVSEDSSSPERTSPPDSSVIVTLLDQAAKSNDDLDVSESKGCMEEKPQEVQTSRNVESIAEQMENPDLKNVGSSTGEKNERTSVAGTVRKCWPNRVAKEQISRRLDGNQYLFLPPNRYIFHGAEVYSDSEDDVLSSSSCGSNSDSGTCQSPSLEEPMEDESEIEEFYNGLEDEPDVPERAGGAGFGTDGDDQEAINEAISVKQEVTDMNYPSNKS
Kind of data set: Fluorescent thermal shift assay (FTSA), Sirt1. Format: binding. Conditions: inhibitor 100 μM; read-out: Thermal shift assay: Δ Tm of Sirt1. As to the method: In a 96-well plate (Hard-Shell® PCR-plates, 96-well, thin-wall, BioRAD, USA) 14 μL Sirt1_134−747 in assay buffer (0.3 mg/mL final assay concentration, 50 mM Tris/HCl, 137 mM NaCl, 2.7 mM KCl, 1 mM MgCL2, pH 8.0) were mixed with 1 μL inhibitor in DMSO (100 μM) or DMSO [final assay concentration 5% (v/v)] as a control and 5 μL SyproOrange (1:100 in assay buffer). The fluorescence intensity was monitored during a constant increase of temperature from 20 to 95°C, 1 K per 20 s, using a real-time-PCR-machine (C1000 TouchTM Thermal Cycler, CFX96TM Real-Time System, BioRAD, USA). Melting temperatures were calculated via GraphPad Prism according to a published procedure ([60]).

The test system of data set [2] is MCF7 cells. Briefly: Colony forming assay with MCF7 cells. Format: cell-based, human. Conditions: concentrations as for HeLa. The protocol: For colony assays, 50 cells per well were seeded in 6-well plates and grown in the same conditions with the same drug concentrations as for the proliferation assays. In this case, the growth media containing the drugs was replaced every 48 h. After 7–10 days, when isolated colonies were formed, wells were washed with PBS, and cells were fixed with cold methanol for 5 min at RT. Cells were stained with crystal violet for 10 min at RT and washed with H2O. Images were acquired using iBright (Thermo Fisher Scientific, MA, USA). For quantification, cells of each well were resuspended in 10% glacial acetic acid to dissolve crystal violet whose levels were monitored by measuring absorbance at 590 nm. The experiment was performed in duplicates.

In data set [3] the test system is H3K9ac and p53K382ac in HeLa cells. Briefly: Analysis of acetylation status in HeLa cells by western blotting. Conditions: 48 h; concentrations as in proliferation assay. The class given is cell-based, human. The protocol:
5 × 10^4 cells were plated in 6-well plates and grown with the conditions and drug concentrations as described for the proliferation assay. Cells were harvested at 48 h and resuspendend in protein loading buffer. After sonication the samples were centrifuged at 14,000 rpm in an Eppendorf microcentrifuge (Eppendorf, DE) and the supernatants were analyzed by western-blot. The following antibodies were used: histone H3 (Cell Signaling #9715), histone H3K9ac (Cell Signaling # C5B11), GAPDH (Cell Signaling #D16H11), p53 (ThermoFisher #PA527822), and p53K382ac (Abcam 75754). Quantification was carried out using imageJ.

A short description of data set [4]: Solubility as found in testing. Format: physicochemical. Conditions: compared with earlier hits such as S1th 7.

Sequence of HDAC1 (Q13547 whole entry, species assumed): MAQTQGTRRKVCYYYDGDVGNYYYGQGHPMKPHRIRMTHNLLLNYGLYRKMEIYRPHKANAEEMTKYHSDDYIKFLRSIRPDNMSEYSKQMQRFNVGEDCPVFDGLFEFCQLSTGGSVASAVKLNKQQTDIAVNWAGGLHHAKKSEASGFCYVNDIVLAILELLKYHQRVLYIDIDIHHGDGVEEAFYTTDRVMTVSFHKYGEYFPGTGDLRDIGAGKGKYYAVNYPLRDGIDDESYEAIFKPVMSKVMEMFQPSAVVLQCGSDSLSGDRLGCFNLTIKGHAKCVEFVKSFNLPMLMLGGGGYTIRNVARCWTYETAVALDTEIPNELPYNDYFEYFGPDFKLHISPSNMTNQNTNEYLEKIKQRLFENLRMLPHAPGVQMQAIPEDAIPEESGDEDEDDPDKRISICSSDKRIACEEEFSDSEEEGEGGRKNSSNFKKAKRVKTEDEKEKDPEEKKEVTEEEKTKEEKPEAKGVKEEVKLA

With `N#CSc1cc(SC#N)c(N)nc1N` [PR-619, reference compound], at HDAC1, the inhibition at 100 µM is 54% and the “residual activity HDAC1” value is given as ~ 50%.
Consider `N#CSc1cccc(NC(=O)[C@H]2CC=CC[C@H]2C(=O)O)c1` [S1th 10], for which the “cell proliferation of MCF7 cells” value with MCF7 cells [1] is listed as “most effective”. In addition, the ΔTm at 100 µM at Sirt1 is -5.9 °C. This compound also returned an inhibition at 100 µM at HDAC1 of less than 10%. The “colony forming capabilities of MCF7 cells” value (from here on “colony forming capabilities”) with MCF7 cells [2] is given as “slightly decreased”. Moreover, in data set [3], the “H3K9 acetylation in HeLa cells” value is “clear effect on acetylation” and the “p53K382 acetylation in HeLa cells” value is given as “clear effect on acetylation”.
`CCCCNC(=O)Nc1cccc(SC#N)c1` [S1th 11]: the ΔTm at 100 µM on Sirt1 was -8.1 °C. Further, the “solubility (in words)” value in data set [4] is given as “better soluble”. In addition, the inhibition at 100 µM at HDAC1 is less than 10%.
On to `COc1ccc(SC#N)cc1OCC(=O)N(CCC#N)CCC#N` [S1th 12], for which the “cell proliferation of MCF7 cells” value in the data set on MCF7 cells [1] is “only have a mild effect”. For the same compound, on Sirt1, the ΔTm at 100 µM was -7.2 °C. The “solubility (in words)” value in data set [4] is listed as “better soluble”. Moreover, the inhibition at 100 µM on HDAC1 is less than 10%. Besides, in the data set on MCF7 cells [2], the “colony forming capabilities” value was “barely affected”. Further, in data set [3], the “H3K9 acetylation in HeLa cells” value is on record as “clear effect on acetylation” and the “p53K382 acetylation in HeLa cells” value is “clear effect on acetylation”.
For `N#CSc1cccc(NS(=O)(=O)c2ccc3c(c2)OCCO3)c1` [S1th 13], in the data set with MCF7 cells [1], the “cell proliferation of MCF7 cells” value is on record as “most effective”. Moreover, the ΔTm at 100 µM at Sirt1 was -9.6 °C. In addition, the “solubility (in words)” value in data set [4] is reported as “better soluble”. Further, the inhibition at 100 µM at HDAC1 was less than 10%. Further, the “colony forming capabilities” value with MCF7 cells [2] is “significantly decreased”. Besides, in data set [3], the “H3K9 acetylation in HeLa cells” value is on record as “clear effect on acetylation” and the “p53K382 acetylation in HeLa cells” value is listed as “clear effect on acetylation”.
